In patent US11352371B2, “Thienopyrimidine derivatives as ACC inhibitors and uses thereof” (Gilead Sciences, Inc., priority 2019, dated 2022):

System: HepG2 cells
Assay: In vitro De Novo Lipogenesis (DNL) assay, 13C-acetate incorporation into palmitic acid
Type: cell-based
Conditions: Homo sapiens, 1 hour preincubation, 24 hours with 10 mM 13C-labeled acetate
Protocol: De Novo Lipogenesis (DNL) was measured in vitro in HepG2 cells by quantifying the incorporation of ^13C-labeled acetate into palmitic acid.
HepG2 cells were plated in growth medium (DMEM (Corning cat #15-018-CM) supplemented with 10% FBS (HyClone cat #SH30071-03), and 1× penicillin, streptomycin, glutamine (Corning cat #30-009-CI)) at 10,000 cells/well in a 384-well cell culture-treated plate (Greiner cat #781091). The cells were then incubated overnight at 37° C., 5% CO2. The next day, the cells were washed twice with sterile DPBS (Corning cat #21-031-CM) and the culture medium was changed to fresh growth medium. The compounds of interest were dosed to cells, followed by a 1 hour incubation at 37° C., 5% CO2. ^13C-labeled acetate (Sigma-Aldrich cat #279315-1G) was added to the culture medium at a concentration of 10 mM and the cells were incubated for 24 hours at 37° C., 5% CO2.
In order to analyze the lipid content of the HepG2 cells, the culture medium was removed and the cells were lysed by adding 30 μL of 0.1 M NaOH. After 5 minutes of incubation at room temperature, 15 μL of cell lysate was transferred to a 384-well deep-well plate (Sigma-Aldrich cat #BR701355-48EA) containing 15 μL of 7.3% KOH in ethanol and mixed. This plate was sealed and incubated at 70° C. for 4 hours to hydrolyze the lipids to free fatty acids. 100 μL of acetonitrile was then added and the plate was spun at 3,700 g for 20 minutes to separate the organic and aqueous phases. 50 μL from the top (organic) phase was transferred to a new 384-well plate (NUNC cat #264573) and the samples were analyzed by mass spectrometry using a RapidFire coupled to a QTOF mass spectrometer. The sum of the area under curve (AUC) for palmitate containing 3 to 7 ^13C was normalized with the AUC of oleate and plotted against compound concentration to determine the potency of ACC inhibitors. […]

Row | Compound | EC50 [nM]
1 | Cc1c(-n2nccn2)sc2c1c(=O)n(C(C)(C)C(=O)NS(=O)(=O)C1(C)CC1)c(=O)n2C[C@H](O[C@H]1C[C@H]2CC[C@@H](C1)O2)c1ccccc1OC(F)F [Example 21, 2-(1-((R)-2-(((1R,3r,5S)-8-oxabicyclo[3.2.1]octan-3-yl)oxy)-2-(2-(difluoromethoxy)phenyl)ethyl)-5-methyl-2,4-dioxo-6-(2H-1,2,3-triazol-2-yl)-1,4-dihydrothieno[2,3-d]pyrimidin-3(2H)-yl)-2-methyl-N-((1-methylcyclopropyl)sulfonyl)propanamide] | 29.7
2 | Cc1c(-n2nccn2)sc2c1c(=O)n(C1(C(=O)NS(=O)(=O)C(C)(C)C)CC1)c(=O)n2C[C@H](O[C@H]1C[C@H]2CC[C@@H](C1)O2)c1ccccc1OC(F)F [Example 22, 1-(1-((R)-2-(((1R,3r,5S)-8-oxabicyclo[3.2.1]octan-3-yl)oxy)-2-(2-(difluoromethoxy)phenyl)ethyl)-5-methyl-2,4-dioxo-6-(2H-1,2,3-triazol-2-yl)-1,4-dihydrothieno[2,3-d]pyrimidin-3(2H)-yl)-N-(tert-butylsulfonyl)cyclopropane-1-carboxamide] | 916
3 | Cc1c(-n2nccn2)sc2c1c(=O)n(C1(C(=O)NS(=O)(=O)C3(C)CC3)CC1)c(=O)n2C[C@H](O[C@H]1C[C@H]2CC[C@@H](C1)O2)c1ccccc1OC(F)F [Example 23, 1-(1-((R)-2-(((1R,3r,5S)-8-oxabicyclo[3.2.1]octan-3-yl)oxy)-2-(2-(difluoromethoxy)phenyl)ethyl)-5-methyl-2,4-dioxo-6-(2H-1,2,3-triazol-2-yl)-1,4-dihydrothieno[2,3-d]pyrimidin-3(2H)-yl)-N-((1-methylcyclopropyl)sulfonyl)cyclopropane-1-carboxamide] | 268
4 | COCCOc1ccccc1[C@H](Cn1c(=O)n(C(C)(C)C(=O)NS(=O)(=O)C2(C)CC2)c(=O)c2c(C)c(-n3nccn3)sc21)O[C@@H]1C[C@H]2CC[C@@H](C1)O2 [Example 24, 2-(1-((R)-2-(((1R,3s,5S)-8-oxabicyclo[3.2.1]octan-3-yl)oxy)-2-(2-(2-methoxyethoxy)phenyl)ethyl)-5-methyl-2,4-dioxo-6-(2H-1,2,3-triazol-2-yl)-1,4-dihydrothieno[2,3-d]pyrimidin-3(2H)-yl)-2-methyl-N-((1-methylcyclopropyl)sulfonyl)propanamide] | 24.3
5 | COc1ccccc1[C@H](Cn1c(=O)n(C2(C(=O)NS(=O)(=O)C3(C)CC3)CC2)c(=O)c2c(C)c(-n3nccn3)sc21)O[C@@H]1C[C@H]2CC[C@@H](C1)O2 [Example 25, 1-(1-((R)-2-(((1R,3s,5S)-8-oxabicyclo[3.2.1]octan-3-yl)oxy)-2-(2-methoxyphenyl)ethyl)-5-methyl-2,4-dioxo-6-(2H-1,2,3-triazol-2-yl)-1,4-dihydrothieno[2,3-d]pyrimidin-3(2H)-yl)-N-((1-methylcyclopropyl)sulfonyl)cyclopropane-1-carboxamide] | 1
6 | Cc1c(-n2nccn2)sc2c1c(=O)n(C1(C(=O)NS(=O)(=O)C3(C)CC3)CC1)c(=O)n2C[C@H](O[C@@H]1C[C@H]2CC[C@@H](C1)O2)c1ccccc1OC(F)F [Example 26, 1-(1-((R)-2-(((1R,3s,5S)-8-oxabicyclo[3.2.1]octan-3-yl)oxy)-2-(2-(difluoromethoxy)phenyl)ethyl)-5-methyl-2,4-dioxo-6-(2H-1,2,3-triazol-2-yl)-1,4-dihydrothieno[2,3-d]pyrimidin-3(2H)-yl)-N-((1-methylcyclopropyl)sulfonyl)cyclopropane-1-carboxamide] | 24.6
7 | Cc1c(-n2nccn2)sc2c1c(=O)n(C1(C(=O)NS(=O)(=O)C(C)(C)C)CC1)c(=O)n2C[C@H](O[C@@H]1C[C@H]2CC[C@@H](C1)O2)c1ccccc1OC(F)F [Example 27, 1-(1-((R)-2-(((1R,3s,5S)-8-oxabicyclo[3.2.1]octan-3-yl)oxy)-2-(2-(difluoromethoxy)phenyl)ethyl)-5-methyl-2,4-dioxo-6-(2H-1,2,3-triazol-2-yl)-1,4-dihydrothieno[2,3-d]pyrimidin-3(2H)-yl)-N-(tert-butylsulfonyl)cyclopropane-1-carboxamide] | 363
8 | Cc1c(-n2nccn2)sc2c1c(=O)n(C1(C(=O)NS(=O)(=O)C3(C)CC3)CC1)c(=O)n2C[C@H](O[C@@H]1C[C@H]2CC[C@@H](C1)O2)c1cc(F)ccc1OC(F)F [Example 28, 1-(1-((R)-2-(((1R,3s,5S)-8-oxabicyclo[3.2.1]octan-3-yl)oxy)-2-(2-(difluoromethoxy)-5-fluorophenyl)ethyl)-5-methyl-2,4-dioxo-6-(2H-1,2,3-triazol-2-yl)-1,4-dihydrothieno[2,3-d]pyrimidin-3(2H)-yl)-N-((1-methylcyclopropyl)sulfonyl)cyclopropane-1-carboxamide] | 0.9
9 | Cc1c(-n2nccn2)sc2c1c(=O)n(C1(C(=O)NS(=O)(=O)C(C)(C)C)CC1)c(=O)n2C[C@H](O[C@@H]1C[C@H]2CC[C@@H](C1)O2)c1cc(F)ccc1OC(F)F [Example 29, 1-(1-((R)-2-(((1R,3s,5S)-8-oxabicyclo[3.2.1]octan-3-yl)oxy)-2-(2-(difluoromethoxy)-5-fluorophenyl)ethyl)-5-methyl-2,4-dioxo-6-(2H-1,2,3-triazol-2-yl)-1,4-dihydrothieno[2,3-d]pyrimidin-3(2H)-yl)-N-(tert-butylsulfonyl)cyclopropane-1-carboxamide] | 10.2
10 | COCCOc1ccccc1[C@H](Cn1c(=O)n(C2(C(=O)NS(=O)(=O)C3(C)CC3)CC2)c(=O)c2c(C)c(-n3nccn3)sc21)O[C@@H]1C[C@H]2CC[C@@H](C1)O2 [Example 30, 1-(1-((R)-2-(((1R,3s,5S)-8-oxabicyclo[3.2.1]octan-3-yl)oxy)-2-(2-(2-methoxyethoxy)phenyl)ethyl)-5-methyl-2,4-dioxo-6-(2H-1,2,3-triazol-2-yl)-1,4-dihydrothieno[2,3-d]pyrimidin-3(2H)-yl)-N-((1-methylcyclopropyl)sulfonyl)cyclopropane-1-carboxamide] | 33.1
11 | COc1ccc(F)cc1[C@H](Cn1c(=O)n(C(C)(C)C(=O)NS(=O)(=O)C2(C)CC2)c(=O)c2c(C)c(-c3ncsn3)sc21)O[C@@H]1C[C@H]2CC[C@@H](C1)O2 [Example 31, 2-(1-((R)-2-(((1R,3s,5S)-8-oxabicyclo[3.2.1]octan-3-yl)oxy)-2-(5-fluoro-2-methoxyphenyl)ethyl)-5-methyl-2,4-dioxo-6-(1,2,4-thiadiazol-3-yl)-1,4-dihydrothieno[2,3-d]pyrimidin-3(2H)-yl)-2-methyl-N-((1-methylcyclopropyl)sulfonyl)propanamide] | 1.4
12 | COc1ccccc1[C@H](Cn1c(=O)n(C(C)(C)C(=O)NS(=O)(=O)C2(C)CC2)c(=O)c2c(C)c(C#N)sc21)O[C@@H]1C[C@H]2CC[C@@H](C1)O2 [Example 32, 2-(1-((R)-2-(((1R,3s,5S)-8-oxabicyclo[3.2.1]octan-3-yl)oxy)-2-(2-methoxyphenyl)ethyl)-6-cyano-5-methyl-2,4-dioxo-1,4-dihydrothieno[2,3-d]pyrimidin-3(2H)-yl)-2-methyl-N-((1-methylcyclopropyl)sulfonyl)propanamide] | 9.9
